Test results from paper PMC7168933, “Design, Synthesis and Biochemical Evaluation of Novel Ethanoanthracenes and Related Compounds to Target Burkitt’s Lymphoma” (Pharmaceuticals, 2020).

Legend:
[1] = tested on: MUTU-1 Burkitt lymphoma cell line (EBV+); details: 24 h
[2] = tested on: MUTU-1 Burkitt lymphoma cell line (EBV+); assay: cells; details: Mutu-1, 24 h; for IC50: read-out: IC50 MUTU-I 24 h; for viability at 1 µM: read-out: MUTU-1 Cell Viability % 1 μM, 1 μM, 24 h; for viability at 10 µM: read-out: MUTU-1 Cell Viability % 10 μM, 10 μM, 24 h
[3] = tested on: DG-75 Burkitt lymphoma cell line (EBV−, chemoresistant); assay: cells; details: Homo sapiens, DG-75, 48 h; for viability at 1 µM: read-out: DG-75 Cell Viability % 1 μM, 1 μM, 48 h; for viability at 10 µM: read-out: DG-75 Cell Viability % 10 μM, 10 μM, 48 h

SMILES | melting point [°C] | cell viability in MUTU-I cell line (1 and 10 μM together or concentration not stated) [1] | IC50 [2] [nM] | viability at 1 µM [2] [%] | viability at 10 µM [2] [%] | viability at 1 µM [3] [%] | viability at 10 µM [3] [%] | MUTU-1 Cell Viability % 1 μM ([1]; 1 μM) [%] | MUTU-1 Cell Viability % 10 μM ([1]; 10 μM) [%]
O=[N+]([O-])C=CC12c3ccccc3C(Cl)(c3ccccc31)c1ccccc12 [Compound 20d, (E)-9-Chloro-10-(2-nitrovinyl)-9,10-dihydro-9,10-[1,2]benzenoanthracene] | 259 to 261 | < 6% | 280 | 0.95 | 0.34 | 46 | 0 |  | 
CN1C(=O)C2C3c4ccccc4C(/C=C/[N+](=O)[O-])(c4ccccc43)C2C1=O (stereo not drawn) [Compound 13m, (E)-13-Methyl-9-(2-nitrovinyl)-9,10-dihydro-9,10-[3,4]epipyrroloanthracene-12,14-dione] | 267 to 268 |  | 320 |  | 7.4 | 38.1 | 0.93 | 0 | 
N#C/C=C/C12c3ccccc3C(c3ccccc31)C1C(=O)OC(=O)C12 (stereo not drawn) [Compound 23a, (E)-3-(12,14-Dioxo-9,10-[3,4]furanoanthracen-9(10H)-yl)acrylonitrile] | 215 to 219 |  |  | 82.7 | 82.6 | 89 | 75.8 |  | 
O=C1C2C3c4ccccc4C(/C=C/[N+](=O)[O-])(c4ccccc43)C2C(=O)N1c1ccccc1O (stereo not drawn) [Compound 16l, (E)-13-(2-Hydroxyphenyl)-9-(2-nitrovinyl)-9,10-dihydro-9,10-[3,4]epipyrroloanthracene-12,14-dione] | 203 to 206 |  |  | 2.3 | 0.61 | 59.2 | 0 |  | 
O=C(c1ccccc1)c1ccc(N2C(=O)C3C4c5ccccc5C(/C=C/[N+](=O)[O-])(c5ccccc54)C3C2=O)cc1 (stereo not drawn) [Compound 16i, (E)-13-(4-Benzoylphenyl)-9-(2-nitrovinyl)-9,10-dihydro-9,10-[3,4]epipyrroloanthracene-12,14-dione] | 232 to 234 |  | 240 | 2 | 1.2 | 77.5 | 2.7 |  | 
OCC12c3ccccc3C(c3ccccc31)c1ccccc12 [Compound 20g] |  | inactive |  | 101 | 103 | 97 | 68.7 |  | 
C/C(=C\C12c3ccccc3C(c3ccccc31)C1C(=O)N(Cc3ccccc3)C(=O)C12)[N+](=O)[O-] (stereo not drawn) [Compound 17j, (E)-13-Benzyl-9-(2-nitroprop-1-en-1-yl)-9,10-dihydro-9,10-[3,4]epipyrroloanthracene-12,14-dione] | 232 to 236 |  |  | 94.6 | 85.6 | 104 | 87.9 |  | 
O=C1OC(=O)C2C1C1c3ccccc3C2(CC[N+](=O)[O-])c2ccccc21 (stereo not drawn) [Compound 14a, 9-(2-Nitroethyl)-9,10-dihydro-9,10-[3,4]furanoanthracene-12,14-dione] | 242 to 244 |  |  | 76.7 | 99.3 | 83 | 102 |  | 
O=CC12c3ccccc3C(c3ccccc31)c1ccccc12 [Compound 20f] |  |  |  | 97.9 | < 5 | 72.9 | 81.7 |  | 5.4
CC/C(=C\C12c3ccccc3C(c3ccccc31)C1C(=O)N(c3ccccc3)C(=O)C12)[N+](=O)[O-] (stereo not drawn) [Compound 17b, (E)-9-(2-Nitrobut-1-en-1-yl)-13-phenyl-9,10-dihydro-9,10-[3,4]epipyrroloanthracene-12,14-dione] | 259 to 263 |  |  | 92.6 | 83.4 | 96.4 | 99.9 |  | 
CCOC(=O)C1C2c3ccccc3C(/C=C/[N+](=O)[O-])(c3ccccc32)C1C(=O)OCC (stereo not drawn) [Compound 19f, Diethyl (E)-9-(2-nitrovinyl)-9,10-dihydro-9,10-ethanoanthracene-11,12-dicarboxylate] | 151 to 152 |  | 550 | 13.6 | 13.8 | 13.9 | 13.8 |  | 
CC(=O)OC1(C#N)CC2c3ccccc3C1(/C=C/[N+](=O)[O-])c1ccccc12 (stereo not drawn) [Compound 19d, (E)-11-Cyano-10-(2-nitrovinyl)-9,10-dihydro-9,10-ethanoanthracen-11-yl acetate] | 168 to 170 |  |  | 48.9 | 0.69 | 99.4 | 1 |  | 
O=C1NC(=O)C2C1C1c3ccccc3C2(CC[N+](=O)[O-])c2ccccc21 (stereo not drawn) [Compound 14b, 9-(2-Nitroethyl)-9,10-dihydro-9,10-[3,4]epipyrroloanthracene-12,14-dione] | 295 to 297 |  |  | 58.5 | 95 | 79.3 | 101 |  | 
CC(=CC12c3ccccc3C(c3ccccc31)c1ccccc12)[N+](=O)[O-] [Compound 20b, (E)-9-(2-Nitroprop-1-en-1-yl)-9,10-dihydro-9,10-[1,2]benzenoanthracene] | 226 to 228 |  |  | 95.2 | 102 | 86.4 | 100 |  | 
C/C(=C\C12c3ccccc3C(c3ccccc31)C1C(=O)N(c3ccc(Cl)cc3)C(=O)C12)[N+](=O)[O-] (stereo not drawn) [Compound 17c, (E)-13-(4-Chlorophenyl)-9-(2-nitroprop-1-en-1-yl)-9,10-dihydro-9,10-[3,4]epipyrroloanthracene-12,14-dione] | 298 to 300 |  |  | 78 | 77.6 | 96.6 | 86.3 |  | 
O=C1C2C3c4ccccc4C(/C=C/[N+](=O)[O-])(c4ccccc43)C2C(=O)N1Cc1ccccc1 (stereo not drawn) [Compound 17i, (E)-13-Benzyl-9-(2-nitrovinyl)-9,10-dihydro-9,10-[3,4]epipyrroloanthracene-12,14-dione] | 232 to 236 |  |  | 74.9 | 0.86 | 93.1 | 0.67 |  | 
CCC(=CC12c3ccccc3C(c3ccccc31)c1ccccc12)[N+](=O)[O-] [Compound 20c, (E)-9-(2-Nitrobut-1-en-1-yl)-9,10-dihydro-9,10-[1,2]benzenoanthracene] | 210 to 211 |  |  | 106 | 102 | 95.1 | 84.8 |  | 
CC/C(=C\C12c3ccccc3C(c3ccccc31)C1C(=O)N(c3ccc(Cl)cc3)C(=O)C12)[N+](=O)[O-] (stereo not drawn) [Compound 17d, (E)-13-(4-Chlorophenyl)-9-(2-nitrobut-1-en-1-yl)-9,10-dihydro-9,10-[3,4]epipyrroloanthracene-12,14-dione] | 275 to 279 |  |  | 102 | 99.9 | 96.6 | 78.4 |  | 
O=C1C2C3c4ccccc4C(/C=C/[N+](=O)[O-])(c4ccccc43)C2C(=O)N1c1ccc(Br)cc1 (stereo not drawn) [Compound 16g, (E)-13-(4-Bromophenyl)-9-(2-nitrovinyl)-9,10-dihydro-9,10-[3,4]epipyrroloanthracene-12,14-dione] | 267 to 268 |  | 220 | 2.1 | 1.1 | 28.2 | 0.55 |  | 
O=C1OC(=O)C2C1C1(Cl)c3ccccc3C2(/C=C/[N+](=O)[O-])c2ccccc21 (stereo not drawn) [Compound 13d, (E)-9-Chloro-10-(2-nitrovinyl)-9,10-dihydro-9,10-[3,4]furanoanthracene-12,14-dione] | 275 to 277 |  |  | 35.6 | 43.5 | 98.7 | 102 |  | 
O=[N+]([O-])/C=C/C12c3ccccc3C(c3ccccc31)c1ccccc12 [Compound 20a, (E)-9-(2-nitrovinyl)-9,10-dihydro-9,10-[1,2]benzenoanthracene] |  | < 6% |  | 6 | 1.3 | 90.2 | 0.091 |  | 
CC/C(=C\C12c3ccccc3C(Cl)(c3ccccc31)C1C(=O)N(c3ccccc3)C(=O)C12)[N+](=O)[O-] (stereo not drawn) [Compound 17h, (E)-9-Chloro-10-(2-nitrobut-1-en-1-yl)-13-phenyl-9,10-dihydro-9,10-[3,4]epipyrroloanthracene-12,14-dione] | 261 to 262 |  |  | 107 | 96.3 | 89.2 | 90.3 |  | 
N#CC(C#N)=CC12c3ccccc3C(c3ccccc31)C1C(=O)N(c3ccccc3)C(=O)C12 (stereo not drawn) [Compound 23f, 2-((12,14-Dioxo-13-phenyl-9,10-[3,4]epipyrroloanthracen-9(10H)-yl)methylene)malononitrile] | 255 to 258 |  |  | 78.9 | 71.8 | 82 | 81.6 |  | 
O=c1n(-c2ccccc2)c(=O)n2n1C1c3ccccc3C2(/C=C/[N+](=O)[O-])c2ccccc21 [Compound 18, (E)-9-(2-Nitrovinyl)-14-phenyl-9,10-dihydro-9,10-[1,2]epitriazoloanthracene-13,15-dione] | 168 to 169 |  |  | 75 | 13.2 | 87.3 | 13.2 |  | 
